Calls of active or inactive are those of the source.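 How the source made its calls: active means AC50 no more than tenfold above the top dose tested, or full inhibition at every dose with a flat fit (cut at about 19 µM in these data); inconclusive means flat curve fit with inhibition between 30% and 70%, or poor fit; inactive means AC50 more than tenfold above the top dose tested.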

This experiment relates to HMLE_sh_eGFP viability, CellTiter-Glo luminescence, 72 h. Put plainly: cytotoxicity in HMLE control line with eGFP shRNA, dose response, counter-screen for HMLE_sh_ECad selective toxicity project, cell-based, HMLE_sh_eGFP, luminescence (AID 463074).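 Further: counterscreen control line to flag general toxicity for the HMLE_sh_ECad screen; potency for loss of viability as luminescence drops below DMSO wells.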
With `O=C(c1cccc(S(=O)(=O)N2CCc3ccccc3C2)c1)N1CCN(c2ccc(O)cc2)CC1`, the AC50 is 2.9 µM.

On to `Cc1c(CCOC(=O)CC23CC4CC(CC(C4)C2)C3)sc[n+]1CC(=O)c1ccc(Br)cc1`, for which the AC50 was 2.6 µM.

Take `COC(=O)Nc1ccc(S(=O)(=O)N2c3ccccc3CCC2C)cc1` (stereo unspecified): the AC50 was 1.42 µM.

Turning to `C[C@]12CC[C@H](O)C[C@H]1CC[C@@H]1[C@@H]2CC[C@]2(C)[C@@H](C3=CC(=O)OC3)CC[C@]12O`, the AC50 was 0.234 µM.

As to `CSc1ccc(C2=CC(=O)C[C@H](c3ccc(Cl)cc3)C2)cc1`, the AC50 was 9.27 µM.

For `O=C1/C(=C/c2ccncc2)Oc2cc(OS(=O)(=O)c3ccccc3)ccc21`, the AC50 was 4.81 µM.

With `Cc1ccc(NS(=O)(=O)c2cc([N+](=O)[O-])ccc2NNC(=S)Nc2cc(C)ccc2C)c(C)c1`, the AC50 is 2.6 µM.

For `O=c1c2cc(NC(=S)NCCCN3CCC(Cc4ccccc4)CC3)ccc2nc2n1CCCCC2`, the AC50 was 6.21 µM.

Consider `Cc1cc(C)c(NC(=O)CSCc2c(C)noc2C)c(C)c1`, for which the AC50 was > 19.5 µM (inactive).

In the case of `N#Cc1c(NC(=O)Cn2c(=O)oc3ccccc32)oc(-c2ccccc2)c1-c1ccccc1`, the AC50 is 4.24 µM.

Consider `Cc1ccc(NS(=O)(=O)c2cc3c4c(cccc4c2)C(=O)NC3=O)cc1C`, for which the AC50 was 6.49 µM.

On to `CC[C@H]1CC2CN3CCc4c([nH]c5c([C@H]6C[C@H]7[C@H](CC)CN(C)[C@@H](Cc8c6[nH]c6ccccc86)[C@H]7C(=O)OC)c(OC)ccc45)C(C(=O)OC)(C2)C13`, for which the AC50 is 4.25 µM.

For `CCN(CC(=O)NC1CCCCC1)S(=O)(=O)c1ccc(Cl)cc1`, the AC50 was > 19.5 µM (inactive).

With `COc1ccc(NC(=O)c2cc3ccccc3cc2O)cc1`, the AC50 is 8.3 µM.

Regarding `O=C(Nc1ccc(OCC(F)(F)C(F)F)c(C(F)(F)F)c1)c1ccc(Cl)cc1`, the half-maximal activity concentration (AC50) is 3.19 µM.

As to `CCN(CC)S(=O)(=O)c1ccc2c(c1)C(=NO)c1cc(S(=O)(=O)N(CC)CC)ccc1-2`, the AC50 is 0.756 µM.

Consider `COc1ccc2c(c1)[nH]c1c(=O)n(/N=C/C3C(C)C=C(C)CC3C)c(=O)[nH]c12` (stereo unspecified), for which the AC50 was > 19.5 µM (inactive).

Turning to `Cc1ccc(-c2nc(CS(=O)CC(=O)NCc3ccc4c(c3)OCO4)c(C)o2)cc1` (stereo unspecified), the AC50 was > 19.5 µM (inactive).

Turning to `CCOc1cc(CNc2ccc(Br)cc2)cc(Br)c1OCC(=O)NC(C)(C)C`, the AC50 is 6.32 µM.

Turning to `C=C(CC1([C@@H](NP(=O)(c2ccccc2)c2ccccc2)[C@H]2C[C@@H]2CCCC)CC1)c1ccccc1`, the AC50 is 4.57 µM.

Consider `CCc1ccc(S(=O)(=O)Nc2ccc(O)c3ccccc23)cc1`, for which the AC50 is 14.7 µM.

Take `Cc1cc(C)cc(NC(=O)Nc2ccc(NC(=O)c3ccccc3O)cc2)c1`: the AC50 was > 19.5 µM (inactive).

As to `C[C@@H]1CC[C@H]2C(=O)N3[C@@H](CC[C@@H](C)[C@@H]3c3ccc(Br)cc3)C(=O)N2[C@H]1c1ccc(Br)cc1`, the AC50 is 4.41 µM.

For the compound `O=[N+]([O-])c1cccc(-c2cc(-c3cc(Br)ccc3O)[nH]n2)c1`, the AC50 is 7.53 µM.

On to `CCCCCCCCCc1nc2sc3c(c2c(=O)n1NC(=O)c1ccccc1[N+](=O)[O-])CC(C)(C)OC3`, for which the AC50 is 1.21 µM.

Turning to `Cc1ccccc1-c1ccc(CN2CCN(C)C(CCO)C2)cc1` (stereo unspecified), the AC50 is 5.43 µM.

Consider `CC(=O)Oc1ccc2ccccc2c1C(NC(=O)Cc1ccccc1)c1ccc(Cl)cc1` (stereo unspecified), for which the AC50 was 6.3 µM.

For the compound `Cc1cccc(NC(=O)c2nc[nH]c2C(=O)NCCCNC(=O)c2[nH]cnc2C(=O)Nc2cccc(C)c2)c1`, the AC50 was 6.71 µM.

Take `Cc1cc(-c2ccccc2)nc2cc(C(=O)N(Cc3ccccc3)Cc3ccccc3)nn12`: the AC50 was 10.8 µM.

In the case of `CC1CCCN(CCCOc2ccc(Br)cc2Cl)C1` (stereo unspecified), the AC50 was 8.36 µM.

Turning to `O=C(c1ccc(OCCN2CCCCC2)cc1)c1c(-c2ccc(O)cc2)sc2cc(O)ccc12`, the AC50 is 2.35 µM.

On to `CCOC(=O)c1cnc(-n2nc(C)cc2C)nc1NNc1cc(C)nc(-c2ccccc2)n1`, for which the AC50 was 2.97 µM.

As for `Cc1ccccc1CS(=O)(=O)c1ncc(Cl)c(C(=O)Nc2ccc(F)cc2)n1`, the AC50 is 4.11 µM.

On to `C[C@@H]1CC[C@]2(C(=O)O)CC[C@]3(C)C(=CCC4[C@]56CC[C@@](O)(OC5)C(C)(C)C6CC[C@]43C)C2[C@H]1C` (stereo partly specified), for which the AC50 was 6.19 µM.

For the compound `COc1ccc(OC)c(C(=O)/C=C/c2ccccc2C(F)(F)F)c1`, the AC50 was 6.67 µM.

As for `COc1cc(CNCCc2ccccc2)cc(Cl)c1OCc1ccccc1`, the AC50 was 4.84 µM.

For `C=C(C)COc1ccc(-c2nc(N)ncc2-c2ccc(Cl)cc2)c(O)c1`, the AC50 was 4 µM.

For the compound `CCCCNC(=S)N(C)/N=C/c1ccc2c(c1)OCO2`, the AC50 is 16.3 µM.

For the compound `COc1ccc(Cn2c(SCc3ccccc3C)nc3cc(OC)c(OC)cc3c2=N)cc1`, the AC50 was 3.7 µM.

On to `CC/C(=N/NC(=O)c1ccccc1O)c1c(C)[nH]n(-c2ccccc2)c1=O`, for which the AC50 was 5.25 µM.

As to `OC(CN1CCCCC1)Cn1c2ccc(Cl)cc2c2cc(Cl)ccc21` (stereo unspecified), the AC50 was 7.56 µM.

Take `Cc1ccc(NC(=O)c2nc(S(=O)(=O)Cc3ccccc3)ncc2Cl)cc1`: the AC50 was 6.39 µM.

For `NS(=O)(=O)c1ccc(N=Cc2c(O)n(C3CCCCC3)c(=O)n(C3CCCCC3)c2=O)cc1`, the AC50 is 3.81 µM.

For the compound `Cc1ccc(C(C#N)c2ccc3c(C(F)(F)F)cc(C(F)(F)F)nc3n2)cc1` (stereo unspecified), the AC50 is 2.56 µM.

On to `Fc1ccc(NC(=S)Nc2cc(-c3ccccc3)[nH]n2)cc1Cl`, for which the AC50 is 3.46 µM.

For `Cc1cc(C(=O)NNc2ccc(F)cc2)no1`, the AC50 was 1.68 µM.

For `Cc1ccc(C(=O)NC(=C(Cl)Cl)S(=O)(=O)c2ccccc2)cc1`, the AC50 was 3.22 µM.

Regarding `CCCCCCSc1cc(-c2nc3ccc(C)cn3c2NCCCC)ccc1OC`, the AC50 was 6.6 µM.

For the compound `O=C(/C=C/c1cc2ccccc2o1)c1ccccc1O`, the half-maximal activity concentration (AC50) was 10.1 µM.

For `CCOC(=O)N1CCN(c2ccc(C(=O)c3cccc(F)c3)cc2)CC1`, the AC50 is > 19.5 µM (inactive).

In the case of `CC1=NN(c2ccccc2)C(=O)/C1=C/c1c(O)n(-c2ccc(F)cc2)[nH]c1=O`, the AC50 is 15.8 µM.

On to `CC(C)(C)c1ccc(C(=O)NC(=S)Nc2nc3c(s2)CCCC3)cc1`, for which the AC50 is 2.18 µM.

In the case of `COC(=O)c1ccc(COc2ccccc2/C=C(\C#N)C(=O)Nc2c(C)cc(C)cc2C)cc1`, the AC50 was 2.08 µM.

For the compound `COc1ccc(C(=O)C2CCCN(Cc3cc(C)c(O)c(C)c3)C2)c(OC)c1` (stereo unspecified), the AC50 is 4.9 µM.

As to `O=[N+]([O-])c1cccc(-c2csc(N/N=C/c3cccc(O)c3)n2)c1`, the AC50 is 3.7 µM.

For `O=C(Cn1ncc(Cl)c(Cl)c1=O)N1CCN(S(=O)(=O)c2ccc3ccccc3c2)CC1`, the AC50 was 6.11 µM.

For the compound `O=C1C2=C(NC(=S)NC2c2ccc(Cl)cc2)NC(c2ccc(Cl)cc2)N1c1ccc(Cl)cc1` (stereo unspecified), the AC50 is 6.8 µM.

For the compound `O=C(Nc1ccc2c(c1)OCO2)c1cc(-c2cccc(O)c2)on1`, the AC50 was 1.65 µM.

For the compound `CSc1ccccc1C(=O)Nc1cc(C)ccc1C`, the AC50 was > 19.5 µM (inactive).

In the case of `C=CCNCCCOc1ccc(Cl)cc1C(C)(C)C`, the AC50 was 14.9 µM.

In the case of `CC(c1ccccc1)N1C(=O)/C(=C/c2ccncc2)SC1=S` (stereo unspecified), the AC50 is 17.2 µM.

Consider `O=C(NCCCN1CCOCC1)c1ccc(Sc2ccc(Br)cc2)c([N+](=O)[O-])c1`, for which the AC50 was less than 0.16 µM.

Turning to `CCCCCCOc1ccc(/C(C)=N/NC2=NCCN2)cc1[N+](=O)[O-]`, the AC50 is 3.69 µM.

Regarding `CC(C)C[C@H](CO)N(Cc1ccccc1)S(=O)(=O)N(Cc1ccccc1)[C@@H](CO)CC(C)C`, the AC50 is 3.49 µM.

Regarding `Nc1c(C(=O)Nc2ccccc2)c2nc3ccccc3nc2n1CCCN1CCOCC1`, the half-maximal activity concentration (AC50) is 6.77 µM.

As for `Cc1cc(Br)c(OCc2ccc(C(=O)N/N=C/c3ccc[nH]3)cc2)c(Br)c1`, the AC50 is 1.32 µM.

Consider `O=[N+]([O-])c1ccc(S(=O)(=O)CC(CN2CCCCC2)N2CCCCC2)cc1` (stereo unspecified), for which the AC50 was 5.37 µM.

`CC[C@H](C)[C@H]1O[C@]2(CC[C@@H]1C)C[C@@H]1C[C@@H](CC=C(C)[C@@H](O[C@H]3C[C@H](OC)[C@@H](O[C@H]4C[C@H](OC)[C@@H](O)[C@H](C)O4)[C@H](C)O3)[C@@H](C)C=CC=C3CO[C@@H]4[C@H](O)C(C)=C[C@@H](C(=O)O1)[C@]34O)O2`: the AC50 is 1.78 µM.

Consider `C=CCn1c(CNc2ccccc2)nnc1SCC(=O)N/N=C/c1ccc(O)cc1O`, for which the AC50 is 3.23 µM.

In the case of `CCc1cc2cccc(C)c2nc1SCC(=O)c1ccc(NC(C)=O)cc1`, the AC50 was 4.62 µM.

For `CCCC(=O)Nc1nc2ccc(NC(=O)c3c(F)c(F)c(OC)c(F)c3F)cc2s1`, the AC50 is 1.56 µM.

With `Cc1ccc(C(=O)CSc2nc(-c3ccccc3)ccc2C#N)cc1`, the AC50 is 2.47 µM.

With `CC1CC/C(=C\c2ccc3c(c2)OCO3)C(=O)/C1=C/c1ccc2c(c1)OCO2` (stereo unspecified), the AC50 is 5.09 µM.

In the case of `N#CC1(NC(=O)COC(=O)c2cc(O)c3ccccc3c2O)CCCCC1`, the AC50 was 9.15 µM.

`CC(=O)C12CC(C)=C(C)CC1CC1C3CCC4=CC(=O)CCC4(C)C3CCC12C` (stereo unspecified): the concentration at half-maximal activity (AC50) was 6.65 µM.

In the case of `CCCCCCSc1ccc([C@H]2N[C@@](C)(C(=O)OC)[C@H]3C(=O)N(CC)C(=O)[C@@H]23)cc1`, the AC50 is 19.8 µM.

Consider `O=C(CCSc1nc2ccccc2s1)N/N=C/c1c(O)ccc2ccccc12`, for which the AC50 is 16.2 µM.

Turning to `O=C(NCC1CCCCC1)c1cc2ccccc2cc1O`, the concentration at half-maximal activity (AC50) is 7.79 µM.

Consider `CCN(CC)c1nc(SCCOC(=O)Nc2ccccc2)nc(N(CC)CC)n1`, for which the AC50 is 4.58 µM.

In the case of `COC(=O)c1c(NC(=O)COc2ccc(Cl)cc2Cl)sc2c1CC(C)(C)NC2(C)C`, the AC50 was 6.62 µM.

Take `CCCCCc1cc(=O)oc2c(C(CCN3CCCCC3)c3cc(OC)c(OC)c(OC)c3)c(OC)cc(OC)c12` (stereo unspecified): the AC50 was 6.95 µM.

`COc1ccc(-c2c(-c3cc(OC)cc(OC)c3)n(C)c3ccc(-c4cc(F)cc(OC)c4)cc23)cc1`: the AC50 is > 19.5 µM (inactive).

On to `CC(C)(C)c1ccc(OCC(=O)N/N=C/c2cc(Br)ccc2OC(=O)c2ccco2)cc1`, for which the AC50 is 3.61 µM.

As for `CC1(C)C[C@@H]2C[C@@](C)(CN2C(=O)c2cc(COc3cccc(C(F)(F)F)c3)on2)C1`, the AC50 is 4.8 µM.

In the case of `O=C(NC(=S)Nc1ccc(N2CCCCC2)c(Cl)c1)c1ccc2c(c1)OCCO2`, the AC50 was 3.58 µM.

For the compound `COc1ccc(CCn2c(C3CCCCC3)nc3c(c(=O)c4ccccc4n3C)c2=O)cc1`, the AC50 was 5.17 µM.
